Usually IC50 stands for the concentration at which inhibition is half-maximal. Read a low IC50 as higher potency.

Where “and” joins values, the source holds several entries; their conditions need not be identical. Equal values may be shown once.

Results on 1 substance are retold here after paper PMC10813753 (Biology, 2024).

For test [1], the system named is RWPE-1 cells (healthy prostate). The experiment in a line: MTT viability assay RWPE-1. Type of test: cell-based, human. To be noted: 72 h. The method, then:
(§1) A panel of five tumor cell lines and two normal cell lines was used to preliminarily test the cytotoxicity of compounds 1–4, and the experiments were conducted as previously reported. All human cell lines were acquired from American Type Culture Collection (ATCC): tumor PC-3 and DU145 (prostate), HeLa (cervix), MCF7 (breast) and HT29 (colorectal) and healthy HFF-1 (fibroblast) and RWPE-1 (prostate). The cell catalogue reference and culture media used in the experiments were CRL-1435^TM, RPMI (PC-3), HTB-81™, RPMI (DU145), CCL-2^TM, DMEM (HeLa), HTB-22^TM, DMEM (MCF-7), HTB-38^TM, modified McCoy’s 5a medium, Catalogue No. 30-2007 (HT29), SCRC-1041^TM, DMEM (HFF-1) and CRL-11609^TM, Keratinocyte-SFM (RWPE-1). Culture media were purchased from Merck: RPMI-1640, DMEM + 10% FBS (Fetal Bovine Serum) + […] (penicillin/streptomycin/amphotericin B). Media and supplements for RWPE-1 were from ThermoFisher (17005075, Madrid, Spain). MCF7 cells were additionally supplemented with insulin (0.001 mg/mL in 500 mL media). Cells were kept at 37 °C (5% CO2), and culture media were renewed three times per week. When the cells reached 80–100% confluence, they were trypsinized and centrifuged, and the concentration was adjusted to each experiment. Cells were seeded at a density of ~10,000 cells/well into 24-well plates. The cells were treated with ligands 1–4 or the cytotoxic agents PhenQE8, PhenDC3 or cisplatin at different concentrations (10 nM–100 μM). Compound solutions were freshly prepared using the appropriate culture medium. Triplicate experiments were run. For MTT viability assays, after 72 h incubation, 50 μL of MTT (5 mg/mL) was added, and an additional incubation of 4 h was allowed. The medium in each well was then replaced by DMSO, and the absorbance was measured at 570 nm using an ELISA plate reader. Absorbances were normalized using negative controls (untreated cells, in triplicate, with a maximum of 0.9% DMSO content). Dose–response curves were obtained by plotting the percentage of viable cells versus logarithmic compound concentration. IC50 values were determined using Kaleidagragh^TM (3.52) software by adjusting the data to Equation 1/(1 + 10^(m2*(log(m1) − x))); m1 = 0.000003; m2 = 1.
(In general: Tetrazolium dyes change colour on reduction, which living cells bring about.)

The test system of test [2] is G4 Tel22 telomeric quadruplex DNA. The experiment in a line: Equilibrium dialysis (non-competition and competition), Tel22. Format: binding, human. As to conditions: for Kapp (Tel22): 10 mM potassium phosphate, 100 mM KCl, pH 7.2. The method, then:
(§2) Equilibrium dialysis experiments were conducted with unlabeled quadruplex DNA and/or with dsDNA sequences as previously reported. G4 sequence Tel22 is 5′-A(GGGTTA)3GGG-3′, and ds17 is 5′-GGG TTA CTA CGA ACT GG-3′/5′-CCA GTT CGT AGT AAC CC-3′. The buffering system employed contained 10 mM potassium phosphate buffer and 100 mM of KCl (pH = 7.2). DNA solution concentrations were determined at 90 °C through UV-visible spectrophotometry using the λmax values and extinction coefficients provided by IDT®. Extinction coefficients of TSC ligand 1 were calculated in water and in buffer in the absence and in the presence of 1% (w/v) triton X-100. Competition and non-competition dialysis experiments were carried out using the protocol described by Chaires, with minor modifications. Dialysis bags (Biotech Regenerated Cellulose (RC) membrane, part number 133192, Spectrum Laboratories, Inc., Fisher, Madrid, Spain) with a 0.2 mL volume were used, with G4 Tel22 or duplex ds17 DNA at a concentration of 75 μM, in monomeric units. The dialysis bags were placed in a beaker containing 200 mL of a solution of compound 1 (2 μM) in buffer. The beaker was sealed with Parafilm, and the solution was allowed to equilibrate at room temperature (22 °C) for 24 h with continuous stirring. Then, the contents of the dialysis bags were transferred into microcentrifuge tubes, and triton X-100 was added (1% (w/v) final concentration). After 2 h equilibration at room temperature, the total concentration of the ligand (Ct) was determined using UV-visible spectroscopy. The concentration of free compound 1 (Cf) was also determined spectrophotometrically from the dialysate solution. The concentration of the DNA-bound compound (Cb) was then calculated using the equation Cb = Ct − Cf, and Kapp was determined.
Assays were performed at room temperature with ~2 μM solutions of 1, equilibrated with 75 μM (in monomeric units, tetrads or base pairs, respectively) of the tested DNA sequence for 24 h, in a buffer containing 100 mM KCl. Afterwards, the surfactanct triton X-100 was added to the solutions contained in the dialysis bags, and the recording of the UV-visible spectra was used to determine the concentrations of free and DNA-bound ligands for each situation: Tel22, ds17 or competition experiment Tel22-ds17. The concentration of DNA-bound ligand was determined based on at least two different experiments performed in duplicate or triplicate. […]

In test [3] the test system is ds17 duplex DNA. The experiment in a line: Equilibrium dialysis (non-competition and competition), ds17. Format: binding. As to conditions: for Kapp (ds17): 10 mM potassium phosphate, 100 mM KCl, pH 7.2. The method, then: as §2, with “Then, the contents of the dialysis bags were transferred into microcentrifuge tubes, and triton X-100 was added (1% (w/v) final concentration).” left out
Assays were performed at room temperature with ~2 μM solutions of 1, equilibrated with 75 μM (in monomeric units, tetrads or base pairs, respectively) of the tested DNA sequence for 24 h, in a buffer containing 100 mM KCl. […] The concentration of DNA-bound ligand was determined based on at least two different experiments performed in duplicate or triplicate. […]
Background: Equilibrium dialysis compares concentrations on both sides of a semipermeable membrane.

In test [4] the test system is HeLa cells (cervix). The experiment in a line: MTT viability assay HeLa. Type of test: cell-based, human. To be noted: 72 h. The protocol: as §1
The subject of test [5] is HeLa cells. The test is described as follows: Cell cycle analysis by flow cytometry, HeLa. Type of test: cell-based, human. As to conditions: ½ IC50 concentration, 72 h. The method, then:
For cell cycle experiments, exponentially growing HeLa cells in DMEM were seeded in 6-well plates at a density of 2.5 × 10^5/well. […] Untreated cells were used as controls. After washing with PBS, cells were detached with 0.25% trypsin/0.2% EDTA and centrifuged at 1500 rpm for 5 min at rt. The resulting pellets were mixed with cold 70% ethanol (0.5 mL) and kept at 4 °C for 30 min. Ethanol was removed by centrifugation, and the pellets were washed with 2 mL PBS + 2% BSA and centrifuged. After discarding the supernatants, a propidium iodide solution (PI/RNAse, FxCycle^TM, Invitrogen^TM ref. F10797, 0.5 mL, Thermo Fisher, Madrid, Spain) was added, mixed thoroughly and incubated for 15 min at room temperature prior to analysis by flow cytometry. A total of 10,000 events were registered for each sample. The obtained results were analyzed with the MacsQuantify 2.13.1 program (Miltenyi Biotech, Pozuelo de Alarcón, Spain) and represented as histograms.
In general terms: A flow cytometer gives signals particle by particle.

Where [6] appears, read: competition dialysis (1 + Tel22 + ds17).
The mark [7] stands for this setting: order of magnitude, equilibrium dialysis.

Turning to “2,2′-(1,10-Phenanthroline-2,9-diyl)-bis(methylene)-bis(hydrazine-1-carbothioamide) [compound 1]”, the values for the IC50 in test [1] and in test [4] were 90.8 ± 8.8 µM and approximately 100 µM, respectively. Besides, the “Kapp (Tel22)” value is listed as 1.2 ± 0.1 (M^−1) × 10^−5 in test [2] (setting [6]) and 1.1 ± 0.1 (M^−1) × 10^−5 in test [2] (non-competition dialysis (1 + Tel22), apparent association constant, order 10^5 M^−1). The “binding selectivity Kapp (Tel22)/Kapp (ds17)” value in test [2] (competitive assay) is on record as approximately 24 fold. In addition, the “apparent association constant to telomeric quadruplex” value in test [2] (setting [7]) is ~10^5 M^−1. The “Kapp (ds17)” value in test [3] (setting [6]) is 0.05 ± 0.01 (M^−1) × 10^−5; in test [3] (non-competition dialysis (1 + ds17)), 0.06 ± 0.01 (M^−1) × 10^−5. In test [3] (setting [7]), the “apparent association constant to dsDNA ds17” value was ~10^3 M^−1 and ~ 5 × 10^3 M^−1. Also, the “change in SubG0 population” value in test [5] is listed as “notably increased the number of cells in SubG0”.
